Laboratory results reported in patent US9206130B2, “Quinoline derivatives as AXL kinase inhibitors” (Max-Planck-Gesellschaft zur Förderung der Wissenschaften …, priority 2008, dated 2015).

Experiments:
[1] = biological target: T1, wild type AXL (wtAXL) receptor tyrosine kinase (Homo sapiens, UniProt P30530); test: NIH-3T3-AXL cellular tyrosine kinase assay (inhibition of AXL phosphorylation); type: cell-based; details: AXL phosphorylation in NIH-3T3-AXL (clone 22) cells, serum-depleted, 2 h with compound, immunoprecipitation / anti-phosphotyrosine blot
T1 construct: WtAXL cDNA was cloned into vector pLXSN(ESK) and transfected into Phoenix E packaging cells; expressed in transfected cells; host or cells: NIH3T3 N7 mouse fibroblasts, retrovirally infected (clone 22)
T1 sequence (P30530 26-894): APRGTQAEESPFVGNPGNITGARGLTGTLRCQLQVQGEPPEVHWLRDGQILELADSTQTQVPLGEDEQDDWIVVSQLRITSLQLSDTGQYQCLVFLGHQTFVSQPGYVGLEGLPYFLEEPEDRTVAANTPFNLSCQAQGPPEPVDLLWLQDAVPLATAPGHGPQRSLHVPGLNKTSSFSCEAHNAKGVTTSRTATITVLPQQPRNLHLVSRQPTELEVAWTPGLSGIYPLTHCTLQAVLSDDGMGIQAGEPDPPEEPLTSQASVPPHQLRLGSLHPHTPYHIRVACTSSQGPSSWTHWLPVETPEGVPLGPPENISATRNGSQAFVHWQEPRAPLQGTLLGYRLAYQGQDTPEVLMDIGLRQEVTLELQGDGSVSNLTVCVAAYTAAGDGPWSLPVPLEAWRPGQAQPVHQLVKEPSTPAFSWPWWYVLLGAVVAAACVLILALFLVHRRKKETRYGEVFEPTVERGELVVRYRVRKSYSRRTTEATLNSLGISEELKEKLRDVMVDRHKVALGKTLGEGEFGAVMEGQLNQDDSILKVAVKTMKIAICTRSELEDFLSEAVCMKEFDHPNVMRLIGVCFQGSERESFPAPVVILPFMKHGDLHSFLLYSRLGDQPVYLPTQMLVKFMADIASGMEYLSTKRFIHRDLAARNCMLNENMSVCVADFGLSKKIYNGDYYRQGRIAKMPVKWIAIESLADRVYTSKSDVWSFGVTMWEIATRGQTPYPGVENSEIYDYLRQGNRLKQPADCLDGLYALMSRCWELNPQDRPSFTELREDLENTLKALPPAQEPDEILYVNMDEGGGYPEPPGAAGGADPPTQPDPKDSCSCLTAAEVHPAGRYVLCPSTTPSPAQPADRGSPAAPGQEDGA
Summary of the method: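 NIH3T3 clones stably expressing human wtAXL (puromycin-selected) were exposed to serially diluted compounds for 2 h. AXL was immunoprecipitated from lysates with anti-AXL antibody, and phosphorylation detected by anti-phosphotyrosine (4G10) western blot with ECL.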

| SMILES | IC50 [1] | melting point |
| --- | --- | --- |
| COc1cc2c(Oc3ccc(NS(=O)(=O)c4ccccc4C#N)cc3F)ccnc2cc1OCCN1CCOCC1 [Example D27, 2-Cyano-N-{3-fluoro-4-[6-methoxy-7-(2-morpholin-4-yl-ethoxy)-quinolin-4-yloxy]-phenyl}-benzenesulfonamide] | 783 nM | 193 to 196 °C |
| COc1cc2c(Oc3ccc(NS(=O)(=O)c4ccc(F)cc4F)cc3F)ccnc2cc1OCCN1CCOCC1 [Example D28, 2,4-Difluoro-N-{3-fluoro-4-[6-methoxy-7-(2-morpholin-4-yl-ethoxy)-quinolin-4-yloxy]-phenyl}-benzenesulfonamide] | > 1000 nM | 189 to 191 °C |
| COc1cc2c(Oc3ccc(NS(=O)(=O)c4cccc(-c5ccccc5)c4)cc3F)ccnc2cc1OCCCN1CCC(C)CC1 [Example D29, Biphenyl-3-sulfonic acid (3-fluoro-4-{6-methoxy-7-[3-(4-methyl-piperidin-1-yl)-propoxy]-quinolin-4-yloxy}-phenyl)-amide] | 178 nM | 196 to 198 °C |
| COc1cc2c(Oc3ccc(NS(=O)(=O)c4ccccc4F)cc3F)ccnc2cc1OCCCN1CCCC(C)C1 (centres unmarked) [Example D30, 2-Fluoro-N-(3-fluoro-4-{6-methoxy-7-[3-(3-methyl-piperidin-1-yl)-propoxy]-quinolin-4-yloxy}-phenyl)-benzenesulfonamide] | 82 nM | 102 to 106 °C |
| COc1cc2c(Oc3ccc(NS(=O)(=O)c4ccccc4C#N)cc3F)ccnc2cc1OCCCN1CCCC(C)C1 (centres unmarked) [Example D31, 2-Cyano-N-(3-fluoro-4-{6-methoxy-7-[3-(3-methyl-piperidin-1-yl)-propoxy]-quinolin-4-yloxy}-phenyl)-benzenesulfonamide] | 323 nM | 131 to 132 °C |
| COc1cc2c(Oc3ccc(NS(=O)(=O)c4c(F)cccc4F)cc3F)ccnc2cc1OCCCN1CCCC(C)C1 (centres unmarked) [Example D32, 2,6-Difluoro-N-(3-fluoro-4-{6-methoxy-7-[3-(3-methyl-piperidin-1-yl)-propoxy]-quinolin-4-yloxy}-phenyl)-benzenesulfonamide] | 42 nM | 117 to 119 °C |
| COc1cc2c(Oc3ccc(NS(=O)(=O)c4ccccc4OC(F)(F)F)cc3F)ccnc2cc1OCCCN1CCC(C)CC1 [Example D33, N-(3-Fluoro-4-{6-methoxy-7-[3-(4-methyl-piperidin-1-yl)-propoxy]-quinolin-4-yloxy}-phenyl)-2-trifluoromethoxy-benzenesulfonamide] | 68 nM | 206 to 208 °C |
